Assay [1] has as its target T1, renin in human plasma (human recombinant renin) (Homo sapiens, UniProt P00797).
T1 construct: host or cells: human plasma from 10 normal donors as matrix
T1 sequence (P00797 67-406): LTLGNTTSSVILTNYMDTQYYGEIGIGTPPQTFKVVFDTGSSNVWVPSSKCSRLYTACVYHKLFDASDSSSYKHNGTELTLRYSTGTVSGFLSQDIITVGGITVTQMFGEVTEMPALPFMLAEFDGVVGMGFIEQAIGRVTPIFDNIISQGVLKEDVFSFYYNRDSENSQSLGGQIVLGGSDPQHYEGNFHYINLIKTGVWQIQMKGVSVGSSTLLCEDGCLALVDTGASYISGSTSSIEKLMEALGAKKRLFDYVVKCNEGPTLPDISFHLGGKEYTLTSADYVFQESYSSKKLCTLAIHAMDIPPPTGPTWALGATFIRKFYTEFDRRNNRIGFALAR
Description: Inhibition of renin in human plasma, enzymatic in vitro assay with Ang I EIA. The note with it: human plasma from 10 normal donors; human recombinant renin 3 pM. The format is biochemical. Here is the method: Inhibition of Renin in Human Plasma
The enzymatic in vitro assay was performed in 384-well polypropylene plates (Nunc). The assay buffer consisted of PBS (Gibco BRL) including 1 mM EDTA and 0.1% BSA. The reaction mixture was composed of 80 μL per well of human plasma, enzyme, Ang I-antibodies mix and 5 μL of renin inhibitors in DMSO. The human plasma mix was premixed at 4° C. and consists of • human plasma from 10 normal donors • human recombinant renin (3 pM) • Ang I-antibodies. The mixtures were then incubated at 37° C. for 2 h.
To determine the enzymatic activity and its inhibition, the accumulated Ang I was detected by an enzyme immunoassay (EIA) in 384-well plates (Nunc). 10 μL of the reaction mixture or standards were transferred to immuno plates which were previously coated with a covalent complex of Ang I and bovine serum albumin (Ang I-BSA). 70 μL assay buffer were added and the plates were incubated at 4° C. overnight. The plates were washed 3 times with PBS including 0.01% Tween 20, and then incubated for 2 h at RT with an anti rabbit-peroxidase coupled antibody (WA 934, Amersham).

Assay [2] concerns the target T2, human recombinant renin (Homo sapiens, UniProt P00797).
T2 sequence (P00797 67-406): T1 sequence (P00797 67-406)
Description: Inhibition of human recombinant renin (buffer), enzymatic in vitro assay with Ang I EIA. It counts as biochemical. The note with it: assay buffer PBS, 1 mM EDTA, 0.1% BSA; human recombinant renin 40 pM. Here is the method: Inhibition of Human Recombinant Renin
The enzymatic in vitro assay was performed in 384-well polypropylene plates (Nunc). The assay buffer consisted of PBS (Gibco BRL) including 1 mM EDTA and 0.1% BSA. The reaction mixture were composed of 47.5 μL per well of an enzyme mix and 2.5 μL of renin inhibitors in DMSO. The enzyme mix was premixed at 4° C. and consists of the following components: • human recombinant renin (40 pM) • synthetic human angiotensin(1-14) (0.5 μM) • hydroxyquinoline sulfate (1 mM) The mixtures were then incubated at 37° C. for 3 h. The enzyme reaction was stopped by placing the reaction plate on wet ice.
To determine the enzymatic activity and its inhibition, the accumulated Ang I was detected by an enzyme immunoassay (EIA) in 384-well plates (Nunc). 5 μL of the reaction mixture or standards were transferred to immuno plates which were previously coated with a covalent complex of Ang I and bovine serum albumin (Ang I-BSA). 75 μL of Ang I-antibodies in assay buffer above including 0.01% Tween 20 were added and the plates were incubated at 4° C. overnight.
An alternative protocol could be used by stopping the enzymatic reaction with 0.02N final concentration of HCl. 5 μL of the reaction mixture or standards were transferred to immuno plates and 75 μL of Ang I-antibodies in assay buffer above including 0.01% Tween 20 were added and the plates were incubate at RT for 4 h.
The plates were washed 3 times with PBS including 0.01% Tween 20, and then incubated for 2 h at RT with an anti rabbit-peroxidase coupled antibody (WA 934, Amersham).

Structures are written as SMILES.

For the molecule `CCOC(=O)[C@@H]1C[C@H]1COc1cc(CCCOC)cc(CN(C(=O)[C@H]2CNCC[C@@H]2c2ccc(OCCOc3c(Cl)cc(C)cc3Cl)cc2)C2CC2)c1` [Example 1, Ethyl (1R,2R)-2-{[3-({cyclopropyl[((3R,4S)-4-{4-[2-(2,6-dichloro-4-methylphenoxy)-ethoxy]phenyl}piperidin-3-yl)carbonyl]amino}methyl)-5-(3-methoxypropyl)phen-oxy]methyl}cyclopropanecarboxylate], the IC50 (commonly the midpoint of a concentration-inhibition curve) in assay [1] stood at 11 nM; in assay [2] it was 0.064 nM.
In the same order, the values of `COCCCc1cc(CN(C(=O)[C@H]2CNCC[C@@H]2c2ccc(OCCOc3c(Cl)cc(C)cc3Cl)cc2)C2CC2)cc(OC[C@@H]2C[C@H]2C(=O)O)c1` [Example 2] are 1.1 nM and 0.027 nM.
In the same order, the values of `COCCCc1cc(CN(C(=O)[C@H]2CNCC[C@@H]2c2ccc(OCCOc3c(Cl)cc(C)cc3Cl)cc2)C2CC2)cc(OCC2(CC(=O)O)CC2)c1` [Example 12, (1-{[3-({Cyclopropyl[((3R,4S)-4-{4-[2-(2,6-dichloro-4-methylphenoxy)ethoxy]-phenyl}piperidin-3-yl)carbonyl]amino}methyl)-5-(3-methoxypropyl)phenoxy]-methyl}cyclopropyl)acetic Acid] are 5.6 nM and 0.036 nM.
In the same order, the values of `COCCCc1cc(CN(C(=O)[C@H]2CNCC[C@@H]2c2ccc(OCCOc3c(Cl)cc(C)cc3Cl)cc2)C2CC2)cc(OCC2(Cc3nn[nH]n3)CC2)c1` [Example 14, (3R,4S)—N-Cyclopropyl-4-{4-[2-(2,6-dichloro-4-methylphenoxy)ethoxy]phenyl}-N-(3-(3-methoxypropyl)-5-{[1-(2H-tetrazol-5-ylmethyl)cyclopropyl]methoxy}benzyl)-piperidine-3-carboxamide] are 2.3 nM and 0.03 nM.
